Data reported in ChEMBL document CHEMBL1201862, “PubChem BioAssay data set” (2004).
Active and inactive are the calls of the source.

How the values were obtained:
[1] = biological target: T1, Nuclear receptor subfamily 0 group B member 1 (Homo sapiens, UniProt P51843); format: functional, cell-based;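 note: HEK293T cells transfected with SF-1 and DAX-1 plus StAR promoter luciferase reporter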
T1 sequence (P51843 whole entry): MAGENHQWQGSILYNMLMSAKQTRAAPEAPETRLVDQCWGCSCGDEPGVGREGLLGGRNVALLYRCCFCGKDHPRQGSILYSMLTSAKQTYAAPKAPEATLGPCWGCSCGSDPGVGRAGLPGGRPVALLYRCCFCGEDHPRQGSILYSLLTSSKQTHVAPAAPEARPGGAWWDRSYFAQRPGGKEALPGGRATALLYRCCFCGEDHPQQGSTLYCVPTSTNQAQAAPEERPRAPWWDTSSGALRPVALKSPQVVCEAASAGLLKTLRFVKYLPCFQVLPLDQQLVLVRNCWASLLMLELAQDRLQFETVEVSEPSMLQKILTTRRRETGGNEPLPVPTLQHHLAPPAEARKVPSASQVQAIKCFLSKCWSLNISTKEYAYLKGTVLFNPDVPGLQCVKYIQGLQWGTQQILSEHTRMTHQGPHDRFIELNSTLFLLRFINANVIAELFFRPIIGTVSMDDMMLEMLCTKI

[2] = cells; format: functional, cell-based
[3] = biological target: T2, Orexin/Hypocretin receptor type 1 (Homo sapiens, UniProt O43613); experiment: Homogeneous Time Resolved Fluorescence (HTRF)-based cell-based high throughput dose response assay for antagonists of the orexin 1 receptor (OX1R; HCRTR1). [Related pubchem assays (depositor defined):AID434989, AID435008, AID463079, AID485270, AID492963, AID492964, AID492965, AID493232, AID504717, AID504718]; format: functional
T2 sequence (O43613 whole entry): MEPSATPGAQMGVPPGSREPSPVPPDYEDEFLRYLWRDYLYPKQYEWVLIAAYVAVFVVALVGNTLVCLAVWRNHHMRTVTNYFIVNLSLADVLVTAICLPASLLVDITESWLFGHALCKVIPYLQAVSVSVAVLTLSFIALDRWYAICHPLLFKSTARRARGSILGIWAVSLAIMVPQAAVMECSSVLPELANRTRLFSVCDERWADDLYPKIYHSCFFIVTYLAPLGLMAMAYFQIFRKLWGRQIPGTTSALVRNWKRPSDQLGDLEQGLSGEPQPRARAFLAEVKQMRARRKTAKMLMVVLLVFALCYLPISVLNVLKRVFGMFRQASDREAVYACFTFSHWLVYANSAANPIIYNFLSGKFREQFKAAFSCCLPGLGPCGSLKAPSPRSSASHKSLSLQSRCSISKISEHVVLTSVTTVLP

[4] = biological target: T2, Orexin/Hypocretin receptor type 1; experiment: Fluorescence-based cell-based high throughput dose response assay for antagonists of the orexin 1 receptor (OX1R; HCRTR1). [Related pubchem assays (depositor defined):AID434989, AID435008, AID463079, AID485270, AID492963, AID492964, AID492965, AID493232, AID504717, AID504718]; format: functional
[5] = tested on: CHO-K1; experiment: (§1) Counterscreen for antagonists of the orexin 1 receptor (OX1R; HCRTR1): Homogeneous time resolved fluorescence (HTRF)-based cell-based dose response assay to identify antagonists of the parental CHO-K1 cell line. [Related pubchem assays (depositor defined):AID434989, AID435008, AID463079, AID485270, AID492963, AID492964, AID492965, AID493232, AID504699, AID504701]; format: functional; settings: Cricetulus griseus
[6] = biological target: T3, Orexin receptor type 2 (Homo sapiens, UniProt O43614); experiment: Counterscreen assay for antagonists of the orexin 1 receptor (OX1R; HCRTR1): Homogeneous Time Resolved Fluorescence (HTRF)-based cell-based dose response assay for antagonists of the orexin 2 receptor (OX2R; HCRTR2), run by assay provider.; format: functional
T3 sequence (O43614 whole entry): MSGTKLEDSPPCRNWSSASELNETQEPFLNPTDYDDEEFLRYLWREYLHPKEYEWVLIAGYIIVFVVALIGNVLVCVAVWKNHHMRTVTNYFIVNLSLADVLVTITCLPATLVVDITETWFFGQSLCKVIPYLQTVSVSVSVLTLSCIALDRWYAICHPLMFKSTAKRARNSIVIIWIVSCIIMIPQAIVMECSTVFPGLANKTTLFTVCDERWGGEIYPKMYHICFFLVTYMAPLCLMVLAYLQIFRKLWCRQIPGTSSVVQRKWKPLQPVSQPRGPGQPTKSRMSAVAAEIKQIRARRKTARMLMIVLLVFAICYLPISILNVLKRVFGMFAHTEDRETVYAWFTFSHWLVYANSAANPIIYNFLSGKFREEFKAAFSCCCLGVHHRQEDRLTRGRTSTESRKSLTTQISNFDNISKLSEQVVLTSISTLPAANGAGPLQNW

[7] = biological target: T3, Orexin receptor type 2; experiment: Counterscreen assay for antagonists of the orexin 1 receptor (OX1R; HCRTR1): Fluorescence-based cell-based dose response assay for antagonists of the orexin 2 receptor (OX2R; HCRTR2), run by assay provider.; format: functional
[8] = as §1, with “Fluorescence-based” for “Homogeneous time resolved fluorescence (HTRF)-based”, “cell-based high throughput” for “cell-based”, “CHO” for “CHO-K1”; format: functional
[9] = Shn3 3'UTR reporter inhibitors, dose response, cell-based, Clone20 osteoblasts, firefly luciferase, cherry-picked (AID 624132); format: functional;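 note: firefly luciferase luminescence from reporter carrying the Shn3 3'UTR in osteoblasts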
[10] = control 3'UTR Renilla luciferase suppression, dose response, counter-screen for Shn3 inhibitor project, cell-based, Clone20-Shn3RL, cherry-picked (AID 624133); format: functional
[11] = Fluorescence-based cell-based high throughput dose response assay for inhibitors of the interaction of nucleotide-binding oligomerization domain containing 2 (NOD2) and the receptor-interacting serine-threonine kinase 2 (RIPK2).; format: functional; settings: Homo sapiens
[12] = Luminescence Cell-Based Dose Retest to Confirm Inhibitors of Cancer Stem Cells. [Related pubchem assays (depositor defined):AID2717, AID2721]; format: functional; settings: Homo sapiens
[13] = HepG2 cell cytotoxicity, dose response, cytotoxicity control for Shn3 inhibitor project, CellTiter-Glo, cherry-picked (AID 624134); format: functional, cell-based
[14] = inhibitors of firefly luciferase expression or activity, dose response, H4 neuroglioma cells, luminescence (AID 1990); format: functional, cell-based
[15] = NIH-3T3 fibroblast cytotoxicity, dose response, cytotoxicity control, cell-based, fluorescence, Alamar Blue, secondary assay (AID 2327); format: functional;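 note: NIH-3T3 mouse fibroblasts cultured with fluconazole at 8 µg/mL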
[16] = Luminescence Cell-Based Dose Response HTS to Identify Inhibitors of 5'UTR Stem-Loop Driven Prion Protein mRNA Translation in H4 Neuroglioblastoma Cells. [Related pubchem assays: 1827 (Project Summary), 1813 (Primary HTS)]; format: functional
[17] = biological target: ATP-dependent molecular chaperone HSP82 (Candida albicans (strain WO-1) (Yeast), UniProt C4YTQ8); experiment: loss of DOC-induced GRE-beta-galactosidase reporter signal, dose response, Hsp90 inhibitor project, S. cerevisiae, luminescence (AID 2400); format: functional, cell-based;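 note: beta-galactosidase luminescence from glucocorticoid response element reporter as proxy for Hsp90 function; inhibitor potency where signal loss means Hsp90 inhibition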
[18] = biological target: T4, Serine/threonine-protein phosphatase (Candida dubliniensis (strain CD36 / CBS 7987 / NCPF 3949 / NRRLY-17841) (Yeast), UniProt B9W6M3); experiment: calcineurin pathway inhibitors in yeast reporter, dose response, S. cerevisiae, CDRE-lacZ, luminescence, secondary (AID 2388); format: functional, cell-based;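 note: yeast reporter cells carrying a calcineurin-responsive lacZ construct stimulated with calcium chloride; luminescent beta-galactosidase reporter signal in whole cells rather than isolated phosphatase activity; potency for inhibition where a drop in reporter signal means calcineurin blockade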
T4 sequence (B9W6M3 whole entry): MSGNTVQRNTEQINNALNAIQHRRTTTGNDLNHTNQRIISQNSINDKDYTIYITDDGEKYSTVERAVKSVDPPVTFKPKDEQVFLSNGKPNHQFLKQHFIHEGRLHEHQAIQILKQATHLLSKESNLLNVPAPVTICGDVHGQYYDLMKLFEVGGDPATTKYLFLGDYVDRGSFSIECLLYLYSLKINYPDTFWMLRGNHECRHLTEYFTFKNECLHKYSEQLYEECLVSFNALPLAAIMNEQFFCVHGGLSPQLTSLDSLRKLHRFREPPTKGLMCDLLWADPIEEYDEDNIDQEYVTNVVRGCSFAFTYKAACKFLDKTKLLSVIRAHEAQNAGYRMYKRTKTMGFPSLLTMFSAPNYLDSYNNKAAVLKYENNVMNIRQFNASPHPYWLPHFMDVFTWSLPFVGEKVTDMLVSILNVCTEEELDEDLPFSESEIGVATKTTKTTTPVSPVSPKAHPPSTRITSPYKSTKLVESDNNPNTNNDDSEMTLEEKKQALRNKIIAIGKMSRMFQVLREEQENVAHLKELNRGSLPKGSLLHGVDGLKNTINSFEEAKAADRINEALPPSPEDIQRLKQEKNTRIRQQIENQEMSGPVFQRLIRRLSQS

[19] = tested on: Streptococcus sp. 'group A'; experiment: growth inhibition of control SK(-) GAS strain, dose response, counter-screen for streptokinase expression inhibitor project, luminescence, kanamycin, BacTiterGlo, confirmation (AID 1900); format: functional, organism-based
[20] = tested on: Streptococcus; experiment: Group A Streptococcus viability loss, dose response, counter-screen for streptokinase expression inhibitor project, luminescence, BacTiterGlo (AID 1915); format: functional, organism-based;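 note: potency for reduction of bacterial viability or growth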
[21] = C. albicans growth with fluconazole, confirmation, fluorescence, retest (AID 2467); format: functional, cell-based
[22] = inhibitors of SNCA 5'UTR-driven reporter translation, confirmation, H4 neuroglioma cells, luminescence (AID 1988); format: functional, cell-based

Chain of ATP-dependent molecular chaperone HSP82 (C4YTQ8 whole entry): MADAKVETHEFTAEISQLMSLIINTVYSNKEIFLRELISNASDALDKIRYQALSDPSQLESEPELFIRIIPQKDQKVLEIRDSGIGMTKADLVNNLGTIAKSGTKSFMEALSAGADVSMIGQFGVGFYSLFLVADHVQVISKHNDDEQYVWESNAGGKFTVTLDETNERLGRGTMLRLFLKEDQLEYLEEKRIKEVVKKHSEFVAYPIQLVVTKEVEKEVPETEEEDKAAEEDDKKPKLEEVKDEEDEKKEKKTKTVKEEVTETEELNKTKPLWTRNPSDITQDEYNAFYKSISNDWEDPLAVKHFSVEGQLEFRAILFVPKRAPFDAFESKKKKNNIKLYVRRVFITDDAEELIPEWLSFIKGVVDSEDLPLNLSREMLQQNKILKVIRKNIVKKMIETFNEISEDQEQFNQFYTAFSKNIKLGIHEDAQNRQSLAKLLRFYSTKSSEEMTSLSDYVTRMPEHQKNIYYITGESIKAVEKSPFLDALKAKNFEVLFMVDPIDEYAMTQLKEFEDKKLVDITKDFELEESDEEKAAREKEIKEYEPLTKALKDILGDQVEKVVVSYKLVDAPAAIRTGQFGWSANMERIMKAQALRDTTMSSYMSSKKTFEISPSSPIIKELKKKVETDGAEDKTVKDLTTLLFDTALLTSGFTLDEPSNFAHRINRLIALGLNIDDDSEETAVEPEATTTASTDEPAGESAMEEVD

| Structure (SMILES) | IC50 [1] | IC50 [2] | IC50 [3] | IC50 [4] | IC50 [5] | IC50 [6] | IC50 [7] | IC50 [8] | also measured |
| --- | --- | --- | --- | --- | --- | --- | --- | --- | --- |
| CN(CCC#N)c1ccc(/C=C(\C#N)c2ccccn2)cc1 | > 0.834 µM (active) | > 67.5 µM (inactive) |  |  |  |  |  |  |  |
| CCC1(O)CC2CN(CCc3c([nH]c4ccccc34)C(C(=O)OC)(c3cc4c(cc3OC)N(C=O)C3C(O)(C(=O)OC)C(OC(C)=O)C5(CC)C=CCN6CCC43C65)C2)C1 (stereo not given) | 0.386 µM (active) | > 67.5 µM (inactive) |  |  |  |  |  |  |  |
| Cc1cc(C(=O)NCc2cccc(Cl)c2)c2ccccc2n1 |  |  | 0.976 µM (active) | 12.6 µM (inactive) | > 66.2 µM (inactive) | 7.59 µM (active) | > 88.8 µM (inactive) | > 49.7 µM (inactive) |  |
| O=[N+]([O-])/C=C/c1cn(Cc2ccc(Cl)cc2)c2ccccc12 |  |  |  |  |  |  |  |  | AC50 [9]: 8.32 µM (active); AC50 [10]: 21.2 µM (active); IC50 [11]: 6.98 µM (active); AC50 [12]: 1.88 µM (active); AC50 [13]: 5.81 µM (active) |
| COc1ccccc1C(=O)Nc1nc2cc3c(cc2s1)OCCO3 |  |  | 1.95 µM (active) | 6.51 µM (active) | > 66.2 µM (inactive) | > 50 µM (inactive) | > 88.8 µM (inactive) | > 49.8 µM (inactive) |  |
| Cc1cccc(C(=O)CC(=O)c2cc(Cl)ccc2O)c1 |  |  |  |  |  |  |  |  | EC50 [14]: 8.03 µM (active); EC50 [15]: 34.3 µM (active); EC50 [16]: 9.23 µM (active); EC50 [17]: 3.18 µM (active); EC50 [18]: > 180 µM (inactive); EC50 [19]: 1.01 µM (active); EC50 [20]: 1.61 µM (active); EC50 [21]: 1.09 µM (active); EC50 [22]: 5.25 µM (active) |
